Molecular target: T1, K-Ras G12C (Homo sapiens, UniProt P01116, G12C)
T1 construct: This protein contained 188 amino acids in total, including an N-terminal 6-Histidine tag; made in house; host or cells: E. coli BL21
Experiment: CAF assay (% CAF; method in Example 7, not in this part)
Format: binding
Settings: for % CAF @ 10 uM, 1h: Table 3

| Compound | % CAF @ 10 uM, 1h (10 uM, 1 h) | further results |
| --- | --- | --- |
| C=CC(=O)N1CCN(c2nc(=O)n3c4c(c(-c5ccc(F)cc5F)c(Cl)cc24)SCC3)CC1 [Example 164, 7-(4-acryloylpiperazin-1-yl)-9-chloro-10-(2,4-difluorophenyl)-2,3-dihydro-5H-[1,4]thiazino[2,3,4-ij]quinazolin-5-one] | 95.1% |  |
| C=CC(=O)N1C2CC1CN(c1nc(=O)n3c4c(c(-c5ccc(F)cc5F)c(Cl)cc14)SCC3)C2 [Example 165, 7-(6-acryloyl-3,6-diazabicyclo[3.1.1]heptan-3-yl)-9-chloro-10-(2,4-difluorophenyl)-2,3-dihydro-5H-[1,4]thiazino[2,3,4-ij]quinazolin-5-one] | 16.9% |  |
| C=CC(=O)N1CCN(c2nc(=O)n3c4c(c(-c5ccc(F)cc5F)c(Cl)cc24)SCC3)CC1=O [Example 166, 7-(4-acryloyl-3-oxopiperazin-1-yl)-9-chloro-10-(2,4-difluorophenyl)-2,3-dihydro-5H-[1,4]thiazino[2,3,4-ij]quinazolin-5-one] | 65.5% |  |
| C=CC(=O)N1CCN(c2nc(=O)n3c4c(c(-c5ccccc5C(F)(F)F)c(Cl)cc24)SCC3)[C@@H](C)C1 [Example 167, 7-((S)-4-acryloyl-2-methylpiperazin-1-yl)-9-chloro-10-(2-(trifluoromethyl)phenyl)-2,3-dihydro-5H-[1,4]thiazino[2,3,4-ij]quinazolin-5-one] | 69.8% |  |
| C=CC(=O)N1CCN(c2nc(=O)n3c4c(c(-c5c(O)cccc5F)c(Cl)cc24)SCC3)[C@@H](C)C1 [Example 168, 7-((S)-4-acryloyl-2-methylpiperazin-1-yl)-9-chloro-10-(2-fluoro-6-hydroxyphenyl)-2,3-dihydro-5H-[1,4]thiazino[2,3,4-ij]quinazolin-5-one] | 30.6% |  |
| C=CC(=O)N1CCN(c2nc(=O)n3c4c(c(-c5ccc(F)cc5F)c(Cl)cc24)SCC3)[C@@H](CN2CCC2)C1 [Example 169, 7-((S)-4-acryloyl-2-(azetidin-1-ylmethyl)piperazin-1-yl)-9-chloro-10-(2,4-difluorophenyl)-2,3-dihydro-5H-[1,4]thiazino[2,3,4-ij]quinazolin-5-one] | 23.3% |  |
| C=CC(=O)N1CCN(c2nc(=O)n3c4c(c(-c5c(F)cccc5F)c(Cl)cc24)SCC3)[C@@H](C)C1 [Example 170, (S)-7-(4-acryloyl-2-methylpiperazin-1-yl)-9-chloro-10-(2,6-difluorophenyl)-2,3-dihydro-5H-[1,4]thiazino[2,3,4-ij]quinazolin-5-one] | 75.9% |  |
| C=CC(=O)N1CCN(c2nc(=O)n3c4c(c(-c5cc(Cl)ccc5Cl)c(Cl)cc24)SCC3)[C@@H](C)C1 [Example 171, 7-((S)-4-acryloyl-2-methylpiperazin-1-yl)-9-chloro-10-(2,5-dichlorophenyl)-2,3-dihydro-5H-[1,4]thiazino[2,3,4-ij]quinazolin-5-one] | 48.9% |  |
| C=CC(=O)N1CCN(c2nc(=O)n3c4c(c(-c5ccc(F)cc5F)c(Cl)cc24)SCC3)[C@@H](C#N)C1 [Example 173, (2R)-4-acryloyl-1-(9-chloro-10-(2,4-difluorophenyl)-5-oxo-2,3-dihydro-5H-[1,4]thiazino[2,3,4-ij]quinazolin-7-yl)piperazine-2-carbonitrile] | 2.2% |  |
| C=CC(=O)N1CCN(c2nc(=O)n3c4c(c(-c5cccc(Cl)c5F)c(Cl)cc24)SCC3)[C@@H](C)C1 [Example 174, 7-((S)-4-acryloyl-2-methylpiperazin-1-yl)-9-chloro-10-(3-chloro-2-fluorophenyl)-2,3-dihydro-5H-[1,4]thiazino[2,3,4-ij]quinazolin-5-one] | 93.8% |  |
| C=CC(=O)N1CCN(c2nc(=O)n3c4c(c(-c5cc(Cl)ccc5F)c(Cl)cc24)SCC3)[C@@H](C)C1 [Example 175, 7-((S)-4-acryloyl-2-methylpiperazin-1-yl)-9-chloro-10-(5-chloro-2-fluorophenyl)-2,3-dihydro-5H-[1,4]thiazino[2,3,4-ij]quinazolin-5-one] | 79.8% |  |
| C=C(F)C(=O)N1CCN(c2nc(=O)n3c4c(c(-c5ccc(F)cc5F)c(Cl)cc24)SCC3)C[C@@H]1CC#N [Example 176, 2-((2S)-4-(9-chloro-10-(2,4-difluorophenyl)-5-oxo-2,3-dihydro-5H-[1,4]thiazino[2,3,4-ij]quinazolin-7-yl)-1-(2-fluoroacryloyl)piper-azin-2-yl)acetonitrile] | 40.5% |  |
| C=CC(=O)N1CCN(c2nc(=O)n3c4c(c(-c5ccc(F)cc5F)c(Cl)cc24)SCC3)[C@@H](C)C1 [Example 179, (S)-7-((S)-4-acryloyl-2-methylpiperazin-1-yl)-9-chloro-10-(2,4-difluorophenyl)-2,3-dihydro-5H-[1,4]thiazino[2,3,4-ij]quinazolin-5-one] | 96% |  |
| C=CC(=O)N1CC2CCC1CN2c1nc(=O)n2c3c(c(-c4ccc(F)cc4F)c(Cl)cc13)SCC2 (stereo not drawn) [Example 181, 7-(5-acryloyl-2,5-diazabicyclo[2.2.2]octan-2-yl)-9-chloro-10-(2,4-difluorophenyl)-2,3-dihydro-5H-[1,4]thiazino[2,3,4-ij]quinazolin-5-one] | 28.7% |  |
| C=CC(=O)N1C2COCC1CN(c1nc(=O)n3c4c(c(-c5ccc(F)cc5F)c(Cl)cc14)SCC3)C2 [Example 182, 7-(9-acryloyl-3-oxa-7,9-diazabicyclo[3.3.1]nonan-7-yl)-9-chloro-10-(2,4-difluorophenyl)-2,3-dihydro-5H-[1,4]thiazino[2,3,4-ij]quinazolin-5-one] | 94.4% |  |
| C=CC(=O)N1C[C@H](C)N(c2nc(=O)n3c4c(c(-c5ccc(F)cc5F)c(Cl)cc24)S(=O)(=O)CC3)C[C@H]1C [Example 184, 7-((2S,5R)-4-acryloyl-2,5-dimethylpiperazin-1-yl)-9-chloro-10-(2,4-difluorophenyl)-2,3-dihydro-5H-[1,4]thiazino[2,3,4-ij]quinazolin-5-one 1,1-dioxide] | 91.4% |  |
| C=CC(=O)N1CCN(c2nc(=O)n3c4c(c(-c5ccc(F)cc5F)c(Cl)cc24)SCC3)[C@@H](CS(C)(=O)=O)C1 [Example 185, 7-((R)-4-acryloyl-2-((methylsulfonyl)methyl)piperazin-1-yl)-9-chloro-10-(2,4-difluorophenyl)-2,3-dihydro-5H-[1,4]thiazino[2,3,4-ij]quinazolin-5-one] | 93.3% |  |
| C=CC(=O)N1CCN(c2nc(=O)n3c4c(c(-c5ccc(F)cc5F)c(Cl)cc24)SCC3)C[C@@H]1CS(C)(=O)=O [Example 186, 7-((R)-4-acryloyl-3-((methylsulfonyl)methyl)piperazin-1-yl)-9-chloro-10-(2,4-difluorophenyl)-2,3-dihydro-5H-[1,4]thiazino[2,3,4-ij]quinazolin-5-one] | 92.6% |  |
| C=CC(=O)N1CCN(c2nc(=O)n3c4c(c(-c5ccc(F)cc5F)c(Cl)cc24)SCC3)C[C@H]1CS(C)(=O)=O [Example 187, 7-((S)-4-acryloyl-3-((methylsulfonyl)methyl)piperazin-1-yl)-9-chloro-10-(2,4-difluorophenyl)-2,3-dihydro-5H-[1,4]thiazino[2,3,4-ij]quinazolin-5-one] | 83.7% |  |
| C=CC(=O)N1CCN(c2nc(=O)n3c4c(c(-c5ccc(F)cc5F)c(Cl)cc24)SCC3)[C@H](CS(C)(=O)=O)C1 [Example 188, 7-((S)-4-acryloyl-2-((methylsulfonyl)methyl)piperazin-1-yl)-9-chloro-10-(2,4-difluorophenyl)-2,3-dihydro-5H-[1,4]thiazino[2,3,4-ij]quinazolin-5-one] | 89.2% |  |
| C=CC(=O)N1C[C@H](C)N(c2nc(=O)n3c4c(c(-c5ccc(F)cc5F)c(Cl)cc24)SCC3)C[C@H]1C [Example 189, 7-((2S,5R)-4-acryloyl-2,5-dimethylpiperazin-1-yl)-9-chloro-10-(2,4-difluorophenyl)-2,3-dihydro-5H-[1,4]thiazino[2,3,4-ij]quinazolin-5-one] | 93.8% |  |
| C=CC(=O)N1CCN(c2nc(=O)n3c4c(c(-c5ccc(F)cc5F)c(Cl)cc24)S(=O)(=O)CC3)[C@@H](C)C1 [Example 190, 7-((S)-4-acryloyl-2-methylpiperazin-1-yl)-9-chloro-10-(2,4-difluorophenyl)-2,3-dihydro-5H-[1,4]thiazino[2,3,4-ij]quinazolin-5-one 1,1-dioxide] | 88.2% | % CAF 10 uM @ 60 min (10 uM, 60 min, Table 2a): 88.8% |
| C=CC(=O)N1CCN(c2nc(=O)n3c4c(c(-c5ccc(F)cc5F)c(Cl)cc24)[S@@+]([O-])CC3)[C@@H](C)C1 [Example 191, 7-((S)-4-acryloyl-2-methylpiperazin-1-yl)-9-chloro-10-(2,4-difluorophenyl)-2,3-dihydro-5H-[1,4]thiazino[2,3,4-ij]quinazolin-5-one 1-oxide] | 26.6% |  |
| C=CC(=O)N1CCN(c2nc(=O)n3c4c(c(-c5ccc(F)cc5F)c(Cl)cc24)[S@+]([O-])CC3)[C@@H](C)C1 [Example 192, 7-((S)-4-acryloyl-2-methylpiperazin-1-yl)-9-chloro-10-(2,4-difluorophenyl)-2,3-dihydro-5H-[1,4]thiazino[2,3,4-ij]quinazolin-5-one 1-oxide] | 62.4% |  |
| C=CC(=O)N1CCN(c2nc(=O)n3c4c(c(-c5ccc(F)cc5F)c(Cl)cc24)SCC3)[C@@H](C)C1 [Example 193, 7-((S)-4-acryloyl-2-methylpiperazin-1-yl)-9-chloro-10-(2,4-difluorophenyl)-2,3-dihydro-5H-[1,4]thiazino[2,3,4-ij]quinazolin-5-one] | 97% |  |
| C=CC(=O)N1C2CC(=O)CC1CN(c1nc(=O)n3c4c(c(-c5ccc(F)cc5F)c(C(F)(F)F)cc14)OCCC3)C2 [Example 338, 8-(9-acryloyl-7-oxo-3,9-diazabicyclo[3.3.1]nonan-3-yl)-11-(2,4-difluorophenyl)-10-(trifluoromethyl)-3,4-dihydro-2H,6H-[1,4]oxazepino[2,3,4-ij]quinazolin-6-one] |  | % CAF @ 10 μM, 1 h (10 μM, 1 h, Table 4): 95.3% |
